The source of these data is patent US20250290915A1, “METHOD FOR PREDICTING RESPONSIVENESS TO THERAPY” (CANCERTAIN LIMITED, priority 2022, published 2025).

Assay type in all cases: cell-based, human
In assay [1] the test system is Circulating Tumour Cells (CTCs) from a patient with lung cancer (adenocarcinoma). The assay can be described thus: Drug response score assay on CTCs (with CD45+ cells for immunotherapy) from blood, Example 5. The settings on record: lung cancer CTCs; for Drug sensitivity as calculated by the assay (interpretation of Drug Response Scores): Table 17. As for the experimental part: (§1) CD45^+ cells and circulating tumour cells (CTCs) were isolated from a blood sample provided by each subject.
(§2) CD45 separation was performed by adding human CD45 microbeads (50 μl/ml blood), incubating for 15 minutes at 4° C. and then processing using an AutoMACS machine. This separates the blood sample into CD45^+ and CD45^−cells in 2 separate falcons. The falcon tubes are then centrifuged at 1200 rpm for 5 minutes.
(§3) The supernatant was removed from the CD45^+falcon tube, and the cells resuspended in DMEM with 2 μl Cell Tox, 2 μl MT and 2 μl MT. 20 μl of the resuspended CD45^+ cells was then plated in each well which will contain an immunotherapy treatment.
(§4) The supernatant was removed from the CD45^−falcon tube, and the CD45^−cells contacted with 100 μl of FcR block and 100 μl of CD326 (EpCAM) MicroBeads, followed by incubation at […] 4° C. for 30 minutes. The CD45^−cells were then processed using an AutoMACS machine to separate the EpCAM positive and negative cells into 2 separate falcon tubes. The EpCAM-cells were discarded. The supernatant was removed from the EpCAM^+ cells, and the cells resuspended in DMEM with 2 μl Cell Tox, 2 μl MT and 2 μl MT. 20 μl of the resuspended pellet was then added to all sample wells excluding a blank. After all wells are added to, a cell count was conducted on the […] to determine the number of circulating tumour cells (CTCs).
(§5) The different cell types were each divided equally into populations, depending on the number of drugs/concentrations to be tested and plated on a cell-culture plate pre-coated with a scaffold of polycaprolactone (PCL) electrospun fibres and incubated at 37° C., 5% CO2, for 5 to (typically 10) minutes to facilitate cell attachment. After attachment, an initial imaging step was carried out using the RealTime-Glo™ MT assay from Promega (Catalogue No. G9711)) and the CellTox™ Green Cytotoxicity Assay (Promega, Catalogue No. G8741), carried out according to manufacturer's instructions. Following this initial imagining, the immunotherapeutic and/or chemotherapeutic agents were added to the cell populations as indicated below. After 10 minutes, the imagining step was repeated. The cell populations were then incubated at 37° C., 5% CO2 for 48 hours. The imaging step was then repeated. The cell populations were then re-dosed with the same immunotherapeutic and/or chemotherapeutic agents as indicated below, and incubated at 37° C., 5% CO2 for a further 48 hours. After this second 48 hour incubation, the imagining step was repeated for a final time.
(§6) At the end of this culture period, dose response scores were calculated using a normalized drug response metric as described in Gupta et al. (Communications Biology volume 3, Article number: 42 (2020), https://doi.org/10.1038/s42003-020-0765-z). The start readout for a given immunotherapeutic or chemotherapeutic agent at a given concentration was the to readout for said immunotherapeutic or chemotherapeutic agent at a specified concentration. The end readout for a given immunotherapeutic or chemotherapeutic agent at a given concentration was the final timepoint reading (t96h) for said immunotherapeutic or chemotherapeutic agent at a specified concentration.
(§7) The positive control start readout for a given drug/concentration was the to readout for the corresponding drug at a specified concentration. The positive control end readout for the corresponding drug at a specified concentration was the final timepoint reading (t96h) for the corresponding blank well.
(§8) The negative control start and end readouts for a given immunotherapeutic or chemotherapeutic agent at a given concentration were the to and final timepoint reading (t96h) respectively for blank cell or blank immuno cell well respectively.
(§9) The sensitivity or resistance of a subject's cancer to a given immunotherapeutic or chemotherapeutic agent was determined based on the calculated drug response score as shown in Table 2. […]

The test system of assay [2] is Circulating Tumour Cells (CTCs) from a patient with head and neck cancer (squamous cell carcinoma). As to the kind of experiment: Drug response score assay on CTCs from blood, Example 6. The settings on record: for Drug response score, conc. 1: conc. 1: Ifos 0.125 μg/ml, Gemcit 2 μg/ml, Doxo 10 ng/ml, Etop 1 μg/ml, Metho 0.5 μg/ml, Capecit 200 μg/ml, Vinor 20 μg/ml; for Drug response score, conc. 1 / Drug response score, conc. 2 / Drug response score, conc. 3 / Drug response score, conc. 4: CTCs, t96h; for Drug response score, conc. 2: conc. 2: Ifos 0.25 μg/ml, Gemcit 10 μg/ml, Doxo 30 ng/ml, Etop 4 μg/ml, Metho 1 μg/ml, Capecit 300 μg/ml, Vinor 40 μg/ml; for Drug response score, conc. 3: conc. 3: Ifos 5 μg/ml, Gemcit 20 μg/ml, Doxo 90 ng/ml, Etop 20 μg/ml, Metho 2 μg/ml, Capecit 400 μg/ml, Vinor 80 μg/ml; for Drug response score, conc. 4: conc. 4: Ifos 10 μg/ml, Gemcit 40 μg/ml, Doxo 270 ng/ml, Etop 100 μg/ml, Metho 4 μg/ml, Capecit 600 μg/ml, Vinor 200 μg/ml; for effectiveness on Circulating Tumour Cells under laboratory conditions / Drug sensitivity as calculated by the assay (interpretation of Drug Response Scores): head and neck cancer CTCs; for Drug sensitivity as calculated by the assay (interpretation of Drug Response Scores): Table 20. The protocol: as §1, §2, §4, §5, §6, §7, §8
(§10) The sensitivity or resistance of a subject's cancer to a given immunotherapeutic or chemotherapeutic agent was determined based on the calculated drug response score as shown in Table 2.
Blood samples from a patient with head and neck cancer (squamous cell carcinoma) were received on 11 Mar. 2022 and tested using a 7 drug panel.

The test system of assay [3] is Circulating Tumour Cells (CTCs) from a patient with colon cancer (sigmoid colon cancer). The assay can be described thus: Drug response score assay on CTCs from blood, Example 8. Set-up: key to Drug response score, conc. 1 / Drug response score, conc. 2 / Drug response score, conc. 3 / Drug response score, conc. 4: normalized drug response metric (Gupta et al. 2020). Summed up:
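EpCAM+ CTCs isolated from patient blood by CD45 depletion then EpCAM bead selection, and imaged with RealTime-Glo MT viability and CellTox Green cytotoxicity reagents. Agents added, cells cultured at 37° C, 5% CO2 for 48 h, re-dosed, then a further 48 h. Score calculated by normalized drug response metric from t0 and t96h readouts against blank-well controls.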

The subject of assay [4] is Circulating Tumour Cells (CTCs, EpCam+CD45−) from a patient with stage II synovial sarcoma. As to the kind of experiment: Drug response score assay (RealTime-Glo MT / CellTox Green, PCL scaffold) on CTCs from blood, Example 1. Set-up: key to Drug response score, conc. 1 / Drug response score, conc. 2 / Drug response score, conc. 3 / Drug response score, conc. 4: normalized drug response metric per Gupta et al. 2020. As for the experimental part: as §1, §2, §4, §5, §6, §7, §8, §10
Blood samples from a patient with stage II synovial sarcoma (suspected spindle cell tumour) were received and tested using a 6 drug panel.
Chemotherapeutic agents were tested as in Table 3.

Assay [5] deals with Circulating Tumour Cells (CTCs) from a patient with renal cancer. The assay can be described thus: Drug response score assay on CTCs (with CD45+ cells for immunotherapy) from blood, Example 7. On the set-up: key to Drug response score, conc. 1 / Drug response score, conc. 2 / Drug response score, conc. 3 / Drug response score, conc. 4: normalized drug response metric per Gupta et al. 2020. As for the experimental part:
as §1, §2, §3, §4, §5, §6, §7, §8, §9

In assay [6] the test system is Circulating Tumour Cells (CTCs) from a patient with colon cancer. The assay can be described thus: Drug response score assay on CTCs from blood, Example 2. The protocol:
as §1, §2, §4, §5, §6, §7, §8, §10
Blood samples from a patient with colon cancer were received on 3 Mar. 2022 and tested using a 1 drug panel.

In the case of `CCC1=C[C@@H]2CN(C1)Cc1c([nH]c3ccccc13)[C@@](C(=O)OC)(c1cc3c(cc1OC)N(C)[C@H]1[C@@](O)(C(=O)OC)[C@H](OC(C)=O)[C@]4(CC)C=CCN5CC[C@]31[C@@H]54)C2` [Vinorelbine], the “Drug sensitivity as calculated by the assay (interpretation of Drug Response Scores)” value (“Drug sensitivity as calculated” for short) in assay [1] was “S++”; in assay [2], “Sensitive (S+)”; in assay [3] (sigmoid colon cancer CTCs, Table 26), “Sensitive (S+)”. In addition, the “Drug response score, conc. 1” value in assay [2] stood at 0.6102; in assay [3] (conc. 1 of each drug as in Table 24, CTCs, t96h), 0.0721. For the same compound, the “Drug response score, conc. 2” value was 0.9691 in assay [2] and −0.6648 in assay [3] (conc. 2 of each drug as in Table 24, CTCs, t96h). For the same compound, the “Drug response score, conc. 3” value was determined as 0.4733 in assay [2] and 0.2340 in assay [3] (conc. 3 of each drug as in Table 24, CTCs, t96h). The “Drug response score, conc. 4” value was 0.8073 in assay [2] and −0.5738 in assay [3] (conc. 4 of each drug as in Table 24, CTCs, t96h). The “effectiveness on Circulating Tumour Cells under laboratory conditions” value in assay [2] was “Sensitive S+”.
As to `Nc1ccn([C@@H]2O[C@H](CO)[C@@H](O)C2(F)F)c(=O)n1` [Gemcitabine], the “Drug response score, conc. 1” value in assay [4] (conc. 1: Doxo 10 ng/ml, Ifos 0.125 μg/ml, Gemcit 2 μg/ml, Doce 0.02 μg/ml, Carbo 2 μg/ml, Dacarb 1.5 μg/ml, CTCs, t96h, re-dosed at 48 h) is recorded as 0.9382; in assay [2] it was 0.9091; in assay [5] (conc. 1: Pembr 20 μg/ml (CTCs + CD45+ cells), Docetax 0.02 μg/ml, Gemcit 2 μg/ml, Topo 5 μg/ml, Etop 1 μg/ml, Eribul 5 μg/ml (CTCs), t96h), −0.1637. The “Drug response score, conc. 2” value worked out at 0.4695 in assay [4] (conc. 2: Doxo 30 ng/ml, Ifos 0.25 μg/ml, Gemcit 10 μg/ml, Doce 0.2 μg/ml, Carbo 5 μg/ml, Dacarb 3 μg/ml, CTCs, t96h); 0.8443 in assay [2]; 0.0725 in assay [5] (conc. 2: Pembr 40 μg/ml (CTCs + CD45+ cells), Docetax 0.2 μg/ml, Gemcit 10 μg/ml, Topo 10 μg/ml, Etop 4 μg/ml, Eribul 10 μg/ml (CTCs), t96h). The “Drug response score, conc. 3” value in assay [4] (conc. 3: Doxo 90 ng/ml, Ifos 5 μg/ml, Gemcit 20 μg/ml, Doce 2 μg/ml, Carbo 10 μg/ml, Dacarb 6 μg/ml, CTCs, t96h) is 0.5149; in assay [2] it was 0.6925; in assay [5] (conc. 3: Pembr 100 μg/ml (CTCs + CD45+ cells), Docetax 2 μg/ml, Gemcit 20 μg/ml, Topo 50 μg/ml, Etop 20 μg/ml, Eribul 20 μg/ml (CTCs), t96h), −0.3154. Besides, the “Drug response score, conc. 4” value in assay [4] (conc. 4: Doxo 270 ng/ml, Ifos 10 μg/ml, Gemcit 40 μg/ml, Doce 10 μg/ml, Carbo 20 μg/ml, Dacarb 12 μg/ml, CTCs, t96h) is 0.4075; in assay [2], 0.3157; in assay [5] (conc. 4: Pembr 160 μg/ml (CTCs + CD45+ cells), Docetax 10 μg/ml, Gemcit 40 μg/ml, Topo 100 μg/ml, Etop 100 μg/ml, Eribul 40 μg/ml (CTCs), t96h), −0.0871. For the same compound, the “Drug sensitivity as calculated” value in assay [4] (synovial sarcoma CTCs, Table 5) is “Sensitive (S+)”; in assay [1], “S++”; in assay [2] it was “Sensitive (S+)”; in assay [5] (renal cancer CTCs, Table 23), “Sensitive (S++)”. For the same compound, the “effectiveness on Circulating Tumour Cells (CTCs) under laboratory conditions” value in assay [1] is listed as “marginally more effective than other agents”. The “effectiveness on Circulating Tumour Cells under laboratory conditions” value is “Sensitive S+” in assay [2] and “Sensitive S++” in assay [5] (renal cancer CTCs).
As to `N.N.[Cl][Pt][Cl]` [Cisplatin], the “Drug response score, conc. 1” value in assay [6] (Cisplatin 2 μg/ml, CTCs, t96h) was found to be 2.719. In assay [6] (Cisplatin 4 μg/ml, CTCs, t96h), the “Drug response score, conc. 2” value came to 2.874. Besides, the “Drug response score, conc. 3” value in assay [6] (Cisplatin 10 μg/ml, CTCs, t96h) came to 3.012. Also, the “Drug response score, conc. 4” value in assay [6] (Cisplatin 20 μg/ml, CTCs, t96h) is given as 3.259. The “effectiveness on Circulating Tumour Cells under laboratory conditions” value in assay [6] (colon cancer CTCs) is listed as “not effective”. Also, in assay [6] (colon cancer CTCs, Table 8), the “Drug sensitivity as calculated” value is “Resistant”.
